Measured values from patent US8524897B2, “Crystalline oxazine derivative” (Novartis AG, priority 2011, dated 2013).
pIC50: −log10 of the molar value.

Legend:
[1] = Chemical stability of amorphous versus crystalline material exposed to high temperature/humidity for one week (UPLC purity, solid state); assay type: physicochemical
Experimental: Chemical stability of amorphous versus crystalline 5-cyano-3-methyl-pyridine-2-carboxylic acid [3-((3R,6R)-5-amino-3,6-dimethyl-6-trifluoromethyl-3,6-dihydro-2H-[1,4]oxazin-3-yl)-4-fluoro-phenyl]-amide when exposed to high temperature/humidity for one week
The stability of amorphous versus crystalline 5-cyano-3-methyl-pyridine-2-carboxylic acid [3-((3R,6R)-5-amino-3,6-dimethyl-6-trifluoromethyl-3,6-dihydro-2H-[1,4]oxazin-3-yl)-4-fluoro-phenyl]-amide was tested by exposing the amorphous or crystalline material to high temperature and/or humidity for one week. After storage at high temperature and/or humidity, bulk amorphous or crystalline material was sampled and dissolved in acetonitrile and the purity analysed in a Aquity UPLC from Waters using the following conditions: […]

[2] = Test 4: Inhibition of cellular release of amyloid peptide 1-40; assay type: cell-based, Chinese hamster; conditions: Cricetulus griseus, CHO, 24 h, mean IC50, Test 4, CHO cells with human APP, read-out: Amyloid-β1-40 release IC50
Experimental: (§1) Test 4: Inhibition of Cellular Release of Amyloid Peptide 1-40
(§2) Chinese hamster ovary cells are transfected with the human gene for amyloid precursor protein. The cells are plated at a density of 8000 cells/well into 96-well microtiter plates and cultivated for 24 hours in DMEM cell culture medium containing 10% FCS. The test compound is added to the cells at various concentrations, and the cells are cultivated for 24 hours in the presence of the test compound. The supernatants are collected, and the concentration of amyloid peptide 1-40 is determined using state of the art immunoassay techniques, for example sandwich ELISA, homogenous time-resolved fluorescence (HTRF) immunoassay, or electro-chemiluminescence immunoassay.

[3] = test system: amyloid peptide 1-40 release from Chinese hamster ovary cells transfected with the human gene for amyloid precursor protein; assay: as above; assay type: cell-based; conditions: mean IC50, Test 4, CHO cells with human APP, 24 hours; read-out: Amyloid-β1-40 release IC50
Experimental: as §1, §2

Purity-% ([1]; 50° C., one week, listed as Amorphous) [%] | Purity-% ([1]; 80° C., one week, listed as Amorphous) [%] | Purity-% ([1]; RT, 0 (start), listed as Amorphous) [%] | Purity-% ([1]; RT, one week) [%] | pIC50 [2] | Purity-% ([1]; 40° C./75% RH, one week) [%] | Solid State ([1]; 40° C./75% RH, one week) | Solid State ([1]; 50° C., one week) | Purity-% ([1]; 50° C., one week, listed as Crystalline) [%] | Solid State ([1]; 80° C., one week, Low = lower peaks when measured by XRPD) | Purity-% ([1]; 80° C., one week, listed as Crystalline) [%] | Solid State ([1]; RT, 0 (start)) | Purity-% ([1]; RT, 0 (start), listed as Crystalline) [%] | pIC50 [3] | Structure (SMILES)
91.6 | 55.8 | 96.4 | 96.3 | 8.59 |  |  |  |  |  |  |  |  |  | Cc1cc(C#N)cnc1C(=O)Nc1ccc(F)c([C@]2(C)CO[C@@](C)(C(F)(F)F)C(N)=N2)c1 [Example 1 Amorphous, 5-cyano-3-methyl-pyridine-2-carboxylic acid [3-((3R,6R)-5-amino-3,6-dimethyl-6-trifluoromethyl-3,6-dihydro-2H-[1,4]oxazin-3-yl)-4-fluoro-phenyl]-amide]
 |  |  |  |  | 98.23 | Crystalline | Crystalline | 98.05 | Crystalline, | 98.01 | Crystalline | 98.7 | 8.70 | Cc1cc(C#N)cnc1C(=O)Nc1ccc(F)c([C@]2(C)CO[C@@](C)(C(F)(F)F)C(N)=N2)c1 [Example 1 Crystalline, 5-cyano-3-methyl-pyridine-2-carboxylic acid [3-((3R,6R)-5-amino-3,6-dimethyl-6-trifluoromethyl-3,6-dihydro-2H-[1,4]oxazin-3-yl)-4-fluoro-phenyl]-amide]
